The subject of this assay is Saccharomyces cerevisiae lifespan shortening, growth inhibition. Briefly: Saccharomyces cerevisiae growth inhibition potency – dose response (AID 849).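 Further: yeast growth read as optical density after two days at 30 degrees C.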

IC50 data for 40 compounds are collected here from PubChem BioAssay AID849 (SRMLSC, 2007).

Calls of active or inactive are those of the source. How the calls were made is not given here. Bounds are passed on as bounds.

As for `CC1=NOC(=O)/C1=C\c1ccc(-c2ccc(Cl)cc2Cl)o1`, the IC50 is > 100 µM (inactive).

With `O=c1cc(-c2ccccc2)n(S(=O)(=O)c2ccccc2)o1`, the IC50 was 39.8 µM.

Regarding `O=C(N/N=C/c1sc2ccccc2c1O)c1cccc2ccccc12`, the concentration for half-maximal inhibition (IC50) was 21 µM.

As to `Cc1cc(Cl)ccc1N=c1ssnc1Cl`, the IC50 was > 100 µM (inactive).

Regarding `C(=N\c1ncnc2sccc12)/NOCc1ccccc1`, the half-inhibitory concentration (IC50) is 23.2 µM.

In the case of `COc1cc(Br)cc(/C=N/c2ncn[nH]2)c1O`, the 50% inhibitory concentration (IC50) is 28.8 µM.

In the case of `Cc1ccc(-c2[nH]nc(N)c2N=Nc2ccccc2C)cc1`, the IC50 was > 100 µM (inactive).

For `CC(=O)c1c(C)oc2c1C(=O)c1ccccc1C2=O`, the IC50 is > 100 µM (inactive).

As to `Cc1cc(OCc2ccc(C(=O)NN=C3CCCC3)cc2)ccc1Cl`, the IC50 is 43.6 µM.

Turning to `CCc1ccc(C2NC(=S)NC3=C2C(=O)N(c2ccccc2OC)C(c2ccc(CC)cc2)N3)cc1` (stereo not given), the IC50 was > 100 µM (inactive).

As to `Cc1ccc(CNC(=O)CS(=O)Cc2nc(-c3cccs3)oc2C)cc1` (stereo not given), the IC50 was > 100 µM (inactive).

Regarding `OC(CN1CCN(c2ccccn2)CC1)Cn1c2ccc(Cl)cc2c2cc(Cl)ccc21` (stereo not given), the IC50 is 47.5 µM.

Take `O=C(OCn1ncc(Br)c(Br)c1=O)c1ccccc1Cl`: the IC50 is > 100 µM (inactive).

With `COc1ccc(C(=O)/C=C/Nc2ccc(C)cn2)cc1OC`, the IC50 is > 100 µM (inactive).

As for `O=c1oc2ccccc2c(O)c1/C=C1\C=Nc2ccccc21`, the IC50 is 18 µM.

Consider `COc1ccc(-c2cc(=O)n(-c3nc4ccccc4[nH]3)[nH]2)cc1`, for which the 50% inhibitory concentration (IC50) was 12.5 µM.

Consider `C=C(C)COc1ccc(-c2[nH]ncc2-c2ccccc2OC)c(O)c1`, for which the IC50 was > 100 µM (inactive).

Regarding `CN1CCN(C2=Cc3ccc(Cl)cc3Sc3ccc(F)cc32)CC1`, the IC50 was 30 µM.

Regarding `Cc1noc2ncnc(Sc3ccccc3Cl)c12`, the IC50 was 26.6 µM.

In the case of `O=C(COc1ccc(Cl)cc1)NC1=NN(c2ccccc2)C(=O)C1`, the IC50 was > 100 µM (inactive).

As to `N/C(Cc1ccccc1)=N\OC(=O)c1cccc2ccccc12`, the concentration for half-maximal inhibition (IC50) was 10.8 µM.

Turning to `Cc1cccc(C(=O)CC(=O)c2cc(Cl)ccc2O)c1`, the IC50 was 45.7 µM.

For `Oc1c(CN2CCN(c3ccccn3)CC2)cc(Cl)c2cccnc12`, the 50% inhibitory concentration (IC50) was 37.2 µM.

For the compound `Cc1cc(/C=N/n2cnnc2)c(C)n1-c1ccc(OCc2ccc(Cl)cc2Cl)cc1`, the IC50 is > 100 µM (inactive).

As for `O=C(Oc1c(Cl)cc(Cl)c2cccnc12)c1cccs1`, the half-inhibitory concentration (IC50) is 11.1 µM.

In the case of `CCCCCC/C(=N/O)c1ccccn1`, the IC50 was 10.3 µM.

For `CCN(CC)c1ccc(S(=O)(=O)N2CCOCC2)cc1NC(=O)CSc1cccc[n+]1[O-]`, the IC50 was 16.7 µM.

As to `CC1CCCC2(C1)NC(=S)N(c1ccccc1)N2` (stereo not given), the half-maximal inhibitory concentration (IC50) was 38.2 µM.

`Cc1oc(-c2ccc3c(c2)OCCO3)cc1C(=O)O`: the half-maximal inhibitory concentration (IC50) is 16.8 µM.

Consider `Cc1c(C(=O)O)cccc1-c1ccc(/C=N/Nc2ccc(Br)cc2)o1`, for which the IC50 is > 100 µM (inactive).

On to `O=C(NC1CCCCC1)Sc1ccc(Cl)cc1`, for which the IC50 is > 100 µM (inactive).

Consider `CC(=O)NC(c1cccs1)c1cc([N+](=O)[O-])c2cccnc2c1O` (stereo not given), for which the IC50 is > 100 µM (inactive).

Regarding `C=CCC1c2cccc(C(=O)O)c2C(=O)N1c1cccc(C)c1` (stereo not given), the half-maximal inhibitory concentration (IC50) was 2.79 µM.

`Fc1ccc(-c2ccc(-c3nn4c(-c5ccco5)nnc4s3)o2)cc1`: the IC50 is > 100 µM (inactive).

Turning to `CCCC1COC(Cn2cncn2)(c2ccc(C)cc2)O1` (stereo not given), the half-inhibitory concentration (IC50) was 3.94 µM.

As for `Cc1ccc(/C=C2\C(=O)NC(=S)N(c3ccccc3F)C2=O)s1`, the 50% inhibitory concentration (IC50) is 13.9 µM.

`Cc1ccc(C)c(-n2nnnc2SCC(=O)Nc2cccc(-c3nnc4n3CCCCC4)c2)c1`: the IC50 is > 100 µM (inactive).

For `CCSc1nc(N)nc(-c2cccs2)c1C#N`, the concentration for half-maximal inhibition (IC50) was 24.8 µM.

With `CCc1cccc(CC)c1NC(=S)NCc1ccc2[nH]c(C)cc2c1`, the IC50 is > 100 µM (inactive).

In the case of `CC1(CCc2ccccc2)NC(=S)N(c2ccc(Cl)cc2)N1` (stereo not given), the IC50 is 42 µM.
